Laboratory results published in BindingDB's records for doi:10.1021/jm00087a023 (American Cyanamid, 1992).

Assay: Inhibition of PAF induced platelet aggregation in rabbit

Structure (SMILES) | IC50 [µM]
CCCCCCCCCCCCCCOc1cccc(OP(=O)([O-])Oc2cccc(C[n+]3c[nH]c4ccccc43)c2)c1OC | 1.49
CCCCCCCCCCCCCCCCOCC(COP(=O)(O)Oc1cccc(C[P+](c2ccccc2)(c2ccccc2)c2ccccc2)c1)OC (configuration not stated) | 13.6
